Laboratory results reported in paper PMC10600239, “Selective MCL-1 inhibitor ABBV-467 is efficacious in tumor models but is associated with cardiac troponin increases in patients” (Communications Medicine, 2023).
“And” between values parts separate entries of the source, which are not always exact repeats. Equal entries are not always repeated.

Test system: AMO-1 xenografts
Test: AMO-1 xenograft efficacy (tumor volume, body weight); on Mortality Observation Day 34: key: EUTV: Euthanized: tumor volume; on Mortality Observation Day 36: key: EUTV: Euthanized: tumor volume; on Mortality Observation Day 68, individual animal: key: EUTV: Euthanized: tumor volume
Assay type: in vivo, mouse
Description: All animal studies were conducted in accordance with the guidelines approved by the Institutional Animal Care and Use Committees of AbbVie. The research protocol was approved by In Vivo Pharmacology at AbbVie prior to study initiation but was not publicly registered or disclosed. Female C.B-17 SCID-beige mice (AMO-1, OPM-2, NCI-H929, and OCI-AML2 xenografts) and female NSG mice (MV4-11-Red.Fluc systemic) were purchased from Charles River Laboratories (Wilmington, MA). Animals were housed in a light cycle-controlled room with HEPA filtration at 22 °C. Animals had nesting and climbing cage topper as the primary environmental enrichment. Animals were inoculated subcutaneously in the right flank with 5 × 10^6 (AMO-1, OPM-2, NCI-H929, and OCI-AML2) or intravenous (IV) with 5 × 10^6 (MV4-11-Red.Fluc). The inoculation volume (0.2 mL) comprised a 50:50 mixture of cells in growth media and Matrigel (BD Biosciences) for subcutaneous injections and 100% phosphate-buffered saline for IV administration. All cell lines used in this publication were authenticated using IDEXX for STR profiling as well as their IMPACT and human IMPACT panels for pathogen screening. Electronic calipers were used to measure the length and width of each tumor 2 to 3 times per week. Tumor volume was estimated by applying the following equation: volume = length × width^2/2. All groups remained blinded during measurements and dosing; only veterinary staff were aware of group identity. When tumors reached approximately 200 mm^3, mice were randomized by match and distributed into treatment and control groups. All xenograft trials were conducted using 5 to 10 mice per group, and all mice were ear tagged and monitored individually throughout the studies. […] Tumor burden in the systemic MV4-11-Red.Fluc experiment was measured using an IVIS® spectrum from PerkinElmer by taking the total photon flux of the entire dorsal side of an individual mouse. […] A background control mouse that was tumor naive but received D-Luciferin was placed in the upper left corner of each image. The total flux from this animal was subtracted from the total flux of each animal present in the image.
For in vivo studies, maximal tumor growth inhibition (TGI) was calculated as the greatest treatment response using the following equation: Maximal TGI = (1 − mean tumor volume of the treated group/mean tumor volume of the vehicle control group) × 100. The tumor growth delay (TGD) percentage was determined as the percentage increase of the median time period for the treatment group to reach an arbitrary tumor volume of 1000 mm^3 relative to the vehicle control group. […] A power analysis was conducted using historical data to determine the number of animals required to yield significance of 0.05 at a 30% difference. […] Data from experiments in vivo were analyzed using the student’s t-test for TGI values and the Mann–Whitney U test for TGD using Excel and GraphPad Prism. Fisher’s exact test was used to probe significance of differences in response frequency.

[1] = 25 mg/kg Q7Dx2 IV, Day 53, SCID-beige female mice
[2] = 25 mg/kg Q7Dx2 IV, Day 60, SCID-beige female mice
[3] = 25 mg/kg Q7Dx2 IV, SCID-beige female mice, Day 21
[4] = 25 mg/kg Q7Dx2 IV, SCID-beige female mice, Day 24
[5] = 25 mg/kg Q7Dx2 IV, SCID-beige female mice, Day 26
[6] = 25 mg/kg Q7Dx2 IV, SCID-beige female mice, Day 28
[7] = 25 mg/kg Q7Dx2 IV, SCID-beige female mice, Day 34, surviving animals
[8] = 25 mg/kg Q7Dx2 IV, SCID-beige female mice, Day 43
[9] = 25 mg/kg Q7Dx2 IV, SCID-beige female mice, Day 50
[10] = 25 mg/kg Q7Dx2 IV, SCID-beige female mice, Day 55, remaining animals
[11] = 25 mg/kg Q7Dx2 IV, SCID-beige female mice, Day 62
[12] = 25 mg/kg Q7Dx2 IV, SCID-beige female mice, Day 64
[13] = 25 mg/kg Q7Dx2 IV, SCID-beige female mice, Day 68
[14] = 25 mg/kg Q7Dx2 IV, SCID-beige female mice, Day 68, surviving animals
[15] = 25 mg/kg Q7Dx2 IV, SCID-beige mice, Day 13 (measure date 10/25/2017, dosing begin 10/26/2017)

SMILES: Cc1c(Cl)c2c(Cl)c(C)c1-c1c(-c3ccc(F)cc3)sc3ncnc(c13)O[C@@H](C(=O)O)Cc1cc(ccc1OCc1ccnc(-c3ccc(OC[C@H]4COCCO4)cc3)n1)OC[C@@H](CN1CCN(C)CC1)O2 [Compound A-1747745.0]
- Xenograft AMO-1 (DSMZ) (mm³) Day 34 Mean (6.25 mg/kg QDx1 IV, Day 34, group mean): 1592.98 mm³
- Xenograft AMO-1 (DSMZ) (mm³) Day 34 Median (6.25 mg/kg QDx1 IV, Day 34, group median): 1465.20 mm³
- Mortality Observation Day 34 (6.25 mg/kg QDx1 IV, Day 34, per animal): EUTV
- Xenograft AMO-1 (DSMZ) (mm³) Day 36 (individual animals) (6.25 mg/kg QDx1 IV, Day 36, SCID-beige female mice, tumor volume per animal (remaining animals)): 1617 mm³ and 1642 mm³ and 1750 mm³ and 2010 mm³
- Xenograft AMO-1 (DSMZ) (mm³) Day 36, Mean (6.25 mg/kg QDx1 IV, Day 36, group mean of remaining animals): 1754.60 mm³
- Xenograft AMO-1 (DSMZ) (mm³) Day 36, Median (6.25 mg/kg QDx1 IV, Day 36, group median of remaining animals): 1695.89 mm³
- Mortality Observation Day 36 (6.25 mg/kg QDx1 IV, Day 36, per animal): EUTV
- Mortality Observation Day 19 (25 mg/kg Q7Dx2 IV, AMO-1 xenograft, SCID-beige female mice, individual animals): MORB
- % T/C (mean) (25 mg/kg Q7Dx2 IV, Day 13): 102.38%
- % T/C (median) (25 mg/kg Q7Dx2 IV, Day 13): 100.76%
- % T/C (mean) (25 mg/kg Q7Dx2 IV, Day 19): 6.47%
- % T/C (median) (25 mg/kg Q7Dx2 IV, Day 19): 6.98%
- % T/C (mean) (25 mg/kg Q7Dx2 IV, Day 21): 4.61%
- % T/C (median) (25 mg/kg Q7Dx2 IV, Day 21): 4.91%
- % T/C (mean) (25 mg/kg Q7Dx2 IV, Day 24): 1.88%
- % T/C (median) (25 mg/kg Q7Dx2 IV, Day 24): 1.98%
- % T/C (mean) (25 mg/kg Q7Dx2 IV, Day 26): 1.29%
- % T/C (median) (25 mg/kg Q7Dx2 IV, Day 26): 1.46%
- % T/C (mean) (25 mg/kg Q7Dx2 IV, Day 28): 0.52%
- % T/C (median) (25 mg/kg Q7Dx2 IV, Day 28): 0.52%
- Xenograft AMO-1 (DSMZ) (mm³) Day 53 (individual animals) [1]: 15 mm³
- Xenograft AMO-1 (DSMZ) (mm³) Day 53 Mean [1]: 15.19 mm³
- Xenograft AMO-1 (DSMZ) (mm³) Day 53 Median [1]: 15.19 mm³
- Xenograft AMO-1 (DSMZ) (mm³) Day 60 (individual animals) [2]: 155 mm³ and 71 mm³
- Xenograft AMO-1 (DSMZ) (mm³) Day 60, Mean [2]: 112.89 mm³
- Xenograft AMO-1 (DSMZ) (mm³) Day 60, Median [2]: 112.89 mm³
- Xenograft AMO-1 (DSMZ) Day 19 Mean (25 mg/kg Q7Dx2 IV, SCID-beige female mice, Day 19, group mean tumor volume): 25.56 mm³
- Xenograft AMO-1 (DSMZ) Day 19 Median (25 mg/kg Q7Dx2 IV, SCID-beige female mice, Day 19, group median tumor volume): 25.56 mm³
- Xenograft AMO-1 (DSMZ) (mm³) Day 19, individual animals (25 mg/kg Q7Dx2 IV, SCID-beige female mice, Day 19, individual tumor volumes): 18 mm³ and 33 mm³ and MORB
- Mortality Observation Day 21, individual animals [3]: STOX (2×) and MORB (2×)
- Xenograft AMO-1 (DSMZ) Day 21, Mean [3]: 29.76 mm³
- Xenograft AMO-1 (DSMZ) Day 21, Median [3]: 29.76 mm³
- Xenograft AMO-1 (DSMZ) tumor volume Day 21, individual animals [3]: 19 mm³ and 40 mm³
- Xenograft AMO-1 (DSMZ) (mm³) Day 24, individual animals [4]: 17 mm³ and 19 mm³
- Xenograft AMO-1 (DSMZ) tumor volume Day 24, Mean [4]: 17.90 mm³
- Xenograft AMO-1 (DSMZ) tumor volume Day 24, Median [4]: 17.90 mm³
- Xenograft AMO-1 (DSMZ) tumor volume Day 26, Mean [5]: 17.97 mm³
- Xenograft AMO-1 (DSMZ) tumor volume Day 26, Median [5]: 17.97 mm³
- Xenograft AMO-1 (DSMZ) tumor volume Day 26, individual animals [5]: 18 mm³
- Xenograft AMO-1 (DSMZ) (mm³) Day 28, individual animals [6]: 11 mm³
- Xenograft AMO-1 (DSMZ) Day 28 Mean [6]: 11.33 mm³
- Xenograft AMO-1 (DSMZ) Day 28 Median [6]: 11.33 mm³
- Xenograft AMO-1 (DSMZ) (mm³) Day 34, individual animal tumor volume (25 mg/kg Q7Dx2 IV, SCID-beige female mice, Day 34): 21 mm³ and 19 mm³
- Xenograft AMO-1 (DSMZ) (mm³) Day 34 Mean [7]: 20.16 mm³
- Xenograft AMO-1 (DSMZ) (mm³) Day 34 Median [7]: 20.16 mm³
- Xenograft AMO-1 (DSMZ) (mm³) Day 43, Mean [8]: 15.04 mm³
- Xenograft AMO-1 (DSMZ) (mm³) Day 43, Median [8]: 15.04 mm³
- Xenograft AMO-1 (DSMZ) (mm³) Day 43, individual animal tumor volume [8]: 15 mm³
- Xenograft AMO-1 (DSMZ) tumor volume Day 50, Mean [9]: 15.94 mm³
- Xenograft AMO-1 (DSMZ) tumor volume Day 50, Median [9]: 15.94 mm³
- Xenograft AMO-1 (DSMZ) tumor volume Day 50, individual animals [9]: 15 mm³ and 17 mm³
- Xenograft AMO-1 (DSMZ) tumor volume Day 55, individual animals (25 mg/kg Q7Dx2 IV, SCID-beige female mice, Day 55): 13 mm³ and 9 mm³
- Xenograft AMO-1 (DSMZ) tumor volume Day 55, Mean [10]: 10.76 mm³
- Xenograft AMO-1 (DSMZ) tumor volume Day 55, Median [10]: 10.76 mm³
- Xenograft AMO-1 (DSMZ) (mm³) Day 62 (individual animals) [11]: 198 mm³ and 12 mm³
- Xenograft AMO-1 (DSMZ) (mm³) Day 62, Mean [11]: 104.96 mm³
- Xenograft AMO-1 (DSMZ) (mm³) Day 62, Median [11]: 104.96 mm³
- Xenograft AMO-1 (DSMZ) (mm³) Day 64 (individual animals) [12]: 249 mm³ and 21 mm³
- Xenograft AMO-1 (DSMZ) (mm³) Day 64, Mean [12]: 134.75 mm³
- Xenograft AMO-1 (DSMZ) (mm³) Day 64, Median [12]: 134.75 mm³
- Mortality Observation Day 68, individual animal [13]: EUTV
- Xenograft AMO-1 (DSMZ) (mm³) Day 68, individual animal tumor volume [13]: 1794 mm³ and 24 mm³
- Xenograft AMO-1 (DSMZ) (mm³) Day 68, Mean [14]: 908.91 mm³
- Xenograft AMO-1 (DSMZ) (mm³) Day 68, Median [14]: 908.91 mm³
- Xenograft AMO-1 (DSMZ) tumor volume Day 13, Mean [15]: 225.47 mm³
- Xenograft AMO-1 (DSMZ) tumor volume Day 13, Median [15]: 225.47 mm³
- Xenograft AMO-1 (DSMZ) tumor volume Day 13, individual animals [15]: 233 mm³ and 218 mm³
- Xenograft AMO-1 (DSMZ) (mm³) Day 40, Mean (25 mg/kg Q7Dx2 IV, SCID-beige mice, Day 40, group mean of remaining animals): 7.70 mm³
- Xenograft AMO-1 (DSMZ) (mm³) Day 40, Median (25 mg/kg Q7Dx2 IV, SCID-beige mice, Day 40, group median of remaining animals): 7.70 mm³
- Xenograft AMO-1 (DSMZ) (mm³) Day 40, individual animal (25 mg/kg Q7Dx2 IV, SCID-beige mice, Day 40, tumor volume of single animals): 8 mm³
- Xenograft AMO-1 (DSMZ) Day 57, Mean (25 mg/kg Q7Dx2 IV, SCID-beige mice, Day 57, group mean of remaining animals): 13.23 mm³
- Xenograft AMO-1 (DSMZ) Day 57, Median (25 mg/kg Q7Dx2 IV, SCID-beige mice, Day 57, group median of remaining animals): 13.23 mm³
- Xenograft AMO-1 (DSMZ) (mm³) Day 36, Mean (25 mg/kg Q7Dx2 IV, group mean of remaining animals, SCID-beige mice, Day 36): 10.51 mm³
- Xenograft AMO-1 (DSMZ) (mm³) Day 32 Mean (25 mg/kg Q7Dx2 IV, group mean tumor volume, Day 32): 48.75 mm³
- Xenograft AMO-1 (DSMZ) (mm³) Day 36, Median (25 mg/kg Q7Dx2 IV, group median of remaining animals, SCID-beige mice, Day 36): 10.51 mm³
- Xenograft AMO-1 (DSMZ) (mm³) Day 32 Median (25 mg/kg Q7Dx2 IV, group median tumor volume, Day 32): 48.75 mm³
- Xenograft AMO-1 (DSMZ) (mm³) Day 32 (25 mg/kg Q7Dx2 IV, individual animal tumor volume, Day 32): 94 mm³ and 4 mm³
- Xenograft AMO-1 (DSMZ) (mm³) Day 36 (25 mg/kg Q7Dx2 IV, individual animal tumor volume, SCID-beige mice, Day 36): 11 mm³
